Test results: ChEMBL document CHEMBL5523711, “Design, synthesis, and bioevaluation of SOS1 PROTACs derived from pyrido[2,3-d]pyrimidin-7-one-based SOS1 inhibitor” (Bioorg Med Chem Lett, 2024)

Key:
Type in all cases: functional, cell-based
[1] = tested on: DLD-1; test: Antiproliferative activity against human DLD-1 cells harboring KRAS G13D mutant assessed as inhibition of cell growth
[2] = tested on: A549; test: Antiproliferative activity against human A549 cells harboring KRAS G12S mutant assessed as inhibition of cell growth
[3] = tested on: SW-620; test: Antiproliferative activity against human SW620 cells harboring KRAS G12V mutant assessed as inhibition of cell growth

SMILES: COc1ccc(C(=O)N2CCC3(CCC(CN4CCN(C(=O)[C@H]5CC[C@H](c6cc7c(N[C@H](C)c8cc(N)cc(C(F)(F)F)c8)ncnc7n(C)c6=O)CC5)CC4)CC3)CC2)cc1N1CCC(=O)NC1=O
- IC50 [1]: 107 nM
- IC50 [2]: 52.2 nM
- IC50 [3]: 36.7 nM

SMILES: COc1cc2nc(C)nc(N[C@H](C)c3cc(N)cc(C(F)(F)F)c3)c2cc1O[C@H]1CCOC1
- IC50 [1]: 169 nM
- IC50 [2]: 106 nM
- IC50 [3]: 50.5 nM
